{"source": "paper PMC8655235", "about": "(Journal of Advanced Research, 2020)", "target": "T1, mitochondrial complex I (NADH dehydrogenase) of mites (Psoroptes ovis, UniProt A0A075XDS2)", "T1 sequence (A0A075XDS2 1-300)": "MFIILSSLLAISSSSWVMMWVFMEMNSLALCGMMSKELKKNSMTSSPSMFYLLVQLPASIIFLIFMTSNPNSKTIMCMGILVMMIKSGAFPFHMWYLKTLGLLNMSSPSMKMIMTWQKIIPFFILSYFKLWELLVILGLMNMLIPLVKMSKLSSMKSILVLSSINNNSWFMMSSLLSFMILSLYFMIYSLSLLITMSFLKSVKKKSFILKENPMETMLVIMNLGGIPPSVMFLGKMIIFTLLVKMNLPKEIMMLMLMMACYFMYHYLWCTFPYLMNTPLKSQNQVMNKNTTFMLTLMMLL", "test": "colorimetric complex I assay at […] nm, isolated mite mitochondria", "type": "biochemical", "settings": "read-out: % inhibition at 20 ng/mL"}
{"smiles": "C=CCc1ccc(O)c(OC)c1", "note": "[eugenol, 4-allyl-2-methoxyphenol]", "values": [{"measurement": "inhibition at 0.02 µg/mL", "value": 92.6, "unit": "%"}]}
